Experimental data published in patent EP0846114B1, “3-PYRIDYLOXYALKYL HETEROCYCLIC ETHER COMPOUNDS USEFUL IN CONTROLLING CHEMICAL SYNAPTIC TRANSMISSION” (priority 1995, dated 1996).
Counter-ions that a name gives are not always drawn. Like-named read-outs stand apart in the source and are kept apart here.

How the values were obtained:
[1] = target: T1, neuronal nicotinic cholinergic channel receptors (Rattus norvegicus, UniProt P09483+P12390); assay: [3H]-cytisine radioligand displacement binding (Protocol A)
T1 construct: crude synaptic membrane preparations from whole rat brain; from tissue; host or cells: whole rat brain, crude synaptic membranes
Description: Binding of [^3H]-cytisine ([^3H]-CYT) to nicotinic receptors was accomplished using crude synaptic membrane preparations from whole rat brain (Pabreza et al., Molecular Pharmacol., 1990, 39:9). Washed membranes were stored at -80°C prior to use. Frozen aliquots were slowly thawed and resuspended in 20 volumes of buffer (containing: 120 mM NaCl, 5 mM KCl, 2 mM MgCl2, 2 mM CaCl2 and 50 mM Tris-Cl, pH 7.4 @4°C). After centrifuging at 20,000x g for 15 minutes, the pellets were resuspended in 30 volumes of buffer. Homogenate (containing 125-150 µg protein) was added to triplicate tubes containing concentrations of test compound and [^3H]-CYT (1.25 nM) in a final volume of 500 µL. Samples were incubated for 60 minutes at 4°C, then rapidly filtered through Whatman GF/B filters presoaked in 0.5% polyethyleneimine using 3 x 4 mL of ice-cold buffer. The filters are counted in 4 mL of Ecolume® (ICN). […] Alternately, data were expressed as a percentage of the total specific binding.

[2] = test system: Neuronal Nicotinic Cholinergic Channels in IMR-32 Cells; assay: 86Rb+ efflux in IMR-32 cells (Protocol B); conditions: for IMR-32 maximal response: percent relative to the response elicited by 100 µM (S)-nicotine; for EC50: read-out: IMR-32 EC50, activation of 86Rb+ efflux, IMR-32 human neuroblastoma cells
Description: For the purpose of directly evaluating the ability of test compounds to functionally activate or inhibit certain subtypes of neuronal nicotinic cholinergic channels, an assay to determine ^86Rb^+ efflux in IMR-32 cells was employed (Protocol B below).
Experimental cells were seeded at a density of 500,000 cells/mL into a 24-well tissue culture dish. Plated cells were allowed to proliferate for at least 48 hours before loading with 2 µCi/mL of ^86Rb^+ (35 Ci/mmol) overnight at 37°C.

[3] = displacement of [3H]-CYT (1.25 nM), crude synaptic membranes from whole rat brain, IC50 converted to Ki (Cheng and Prusoff), read-out: Binding
[4] = inhibition of the efflux elicited by 100 µM (S)-nicotine, single dose 1 µM
[5] = inhibition of the efflux elicited by 100 µM (S)-nicotine, single dose 10 µM

T1 sequence (P09483 31-630): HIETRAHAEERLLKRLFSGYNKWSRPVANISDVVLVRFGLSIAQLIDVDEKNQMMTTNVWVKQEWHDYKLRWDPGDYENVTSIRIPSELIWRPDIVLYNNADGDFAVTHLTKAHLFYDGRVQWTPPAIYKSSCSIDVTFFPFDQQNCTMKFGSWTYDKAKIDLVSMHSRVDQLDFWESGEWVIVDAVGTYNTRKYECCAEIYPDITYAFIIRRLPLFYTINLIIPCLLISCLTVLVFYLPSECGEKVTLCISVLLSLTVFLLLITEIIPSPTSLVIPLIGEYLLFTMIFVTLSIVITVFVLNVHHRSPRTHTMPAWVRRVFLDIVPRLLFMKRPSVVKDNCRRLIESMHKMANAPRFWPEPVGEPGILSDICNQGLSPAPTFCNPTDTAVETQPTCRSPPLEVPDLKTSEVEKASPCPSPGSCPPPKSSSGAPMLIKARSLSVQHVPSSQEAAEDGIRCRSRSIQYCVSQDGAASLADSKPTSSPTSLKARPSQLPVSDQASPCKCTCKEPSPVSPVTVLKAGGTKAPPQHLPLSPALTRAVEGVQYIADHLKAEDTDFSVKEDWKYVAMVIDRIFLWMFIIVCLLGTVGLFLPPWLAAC
T1 sequence (P12390 25-500): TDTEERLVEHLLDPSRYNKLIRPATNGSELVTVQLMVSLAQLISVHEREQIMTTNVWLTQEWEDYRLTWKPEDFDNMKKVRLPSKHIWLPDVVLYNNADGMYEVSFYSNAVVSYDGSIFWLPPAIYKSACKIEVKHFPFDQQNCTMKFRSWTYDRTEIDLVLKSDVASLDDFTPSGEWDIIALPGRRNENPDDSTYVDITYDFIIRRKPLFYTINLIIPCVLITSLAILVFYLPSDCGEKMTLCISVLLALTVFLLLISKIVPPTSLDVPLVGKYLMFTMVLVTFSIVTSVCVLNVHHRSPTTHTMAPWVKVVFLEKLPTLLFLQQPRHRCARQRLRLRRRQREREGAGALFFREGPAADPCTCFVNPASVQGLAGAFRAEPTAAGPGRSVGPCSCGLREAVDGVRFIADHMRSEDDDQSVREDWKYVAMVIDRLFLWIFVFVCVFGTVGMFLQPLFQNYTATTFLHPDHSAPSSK

Row | Molecule | Ki [1, 3] [nM] | IMR-32 maximal response [2] [%] | EC50 [2] [nM] | % Inhibition @ 1 µM [2] [%] | % Inhibition @ 10 µM [2] [%] | Ki [1] [nM] | % Inhibition @ 1 µM [2, 4] [%] | % Inhibition @ 10 µM [2, 5] [%]
1 | NC(=O)c1cc(OC[C@@H]2CCN2)cnc1Cl [Example 51, hydrochloride] | 0.19 | 64 | 16000 |  |  |  |  | 
2 | CN1CC[C@@H]1COc1cnc(Cl)c(Cl)c1.Cl [Example 18, 5,6-dichloro-3-(1-methyl-2-(R)-azetidinylmethoxy)pyridine hydrochloride] | 2.4 | 22.5 |  | 0 | 18 |  |  | 
3 | Cl.Clc1cc(OC[C@@H]2CCCN2)cnc1Cl [Example 11, 5,6-Dichloro-3-(2-(S)-pyrrolidinylmethoxy)pyridine hydrochloride] | 0.029 | 93 | 600 |  |  |  |  | 
4 | Cl.N#Cc1cc(OC[C@@H]2CCN2)cnc1Cl [Example 49, 5-Cyano-6-chloro-3-(2-(S)-azetidinylmethoxy)pyridine hydrochloride] | 0.097 | 158 | 290 |  |  |  |  | 
5 | CN1CCC[C@H]1COc1cnc(Cl)c(Cl)c1.Cl [Example 12, 5,6-Dichloro-3-(1-methyl-2-(S)-pyrrolidinylmethoxy)pyridine hydrochloride] | 0.11 | 16 |  | 5 | 8 |  |  | 
6 | CN1CC[C@H]1COc1cnc(Cl)c(Br)c1.Cl [Example 3, 5-Bromo-6-chloro-3-(1-methyl-2-(S)-azetidinylmethoxy)pyridine hydrochloride] | 0.38 |  |  | 55 |  |  |  | 
7 | CCc1cc(OC[C@@H]2CCCN2)cnc1Cl.Cl [Example 46, 5-Ethyl-6-chloro-3-(2-(S)-pyrrolidinylmethoxy)pyridine hydrochloride] | 0.6 | 11 |  |  |  |  |  | 
8 | 5-Ethyl-6-chloro-3-(1-methyl-2-(S)-pyrrolidinylmethoxy)pyridine hydrochloride [Example 47] | 0.065 | 152 | 22000 |  |  |  |  | 
9 | CN1CC[C@H]1COc1cnc(Cl)c(C#N)c1.Cl [Example 50, 5-Cyano-6-chloro-3-(1-methyl-2-(S)-azetidinylmethoxy)pyridine hydrochloride] | 0.88 | 35 | 10000 |  |  |  |  | 
10 | CN1CCC[C@H]1COc1cnc(Cl)c(Br)c1.Cl.Cl [Example 5, 5-Bromo-6-chloro-3-(1-methyl-2-(S)-pyrrolidinylmethoxy)pyridine dihydrochloride] |  | 12 |  |  |  | 0.35 | 12 | 22
11 | CCc1cc(OC[C@H]2CCCN2)cnc1Cl.Cl [Example 48, 5-Ethyl-6-chloro-3-(2-(R)-pyrrolidinylmethoxy)pyridine hydrochloride] | 0.027 | 129 | 56000 |  |  |  |  | 
12 | CN1CC[C@H]1COc1cnc(Cl)c(Cl)c1.Cl [Example 16, 5,6-dichloro-3-(1-methyl-2-(S)-azetidinylmethoxy)pyridine hydrochloride] | 0.7 | 37 | 500 | 35 |  |  |  | 
13 | Cl.Cl.Clc1ncc(OC[C@H]2CCCN2)cc1Br [Example 7, 5-bromo-6-chloro-3-(2-(R)-pyrrolidinylmethoxy)pyridine dihydrochloride] |  | 70 | 4900 |  |  | 0.099 |  | 
14 | CN1CCC[C@@H]1COc1cnc(Cl)c(Cl)c1.Cl [Example 10, 5,6-Dichloro-3-(1-methyl-2-(R)-pyrrolidinylmethoxy)pyridine hydrochloride] | 20 | 3.3 |  | 18 | 90 |  |  | 
15 | Cl.Clc1cc(OC[C@H]2CCN2)cnc1Cl [Example 17, 5,6-dichloro-3-(2-(R)-azetidinylmethoxy)pyridine hydrochloride] |  | 108 | 200 |  |  | 0.06 |  | 
16 | Cl.Clc1ncc(OC[C@@H]2CCN2)cc1Br [Example 2, 5-Bromo-6-chloro-3-(2-(S)-azetidinylmethoxy)pyridine hydrochloride] |  | 120 | 100 |  |  |  |  | 
17 | Cc1ncc(OC[C@@H]2CCN2)cc1Br.Cl [Example 52, 5-bromo-6-methyl-3-(2-(S)-azetidinylmethoxy)pyridine hydrochloride] |  | 124 | 1600 |  |  |  |  | 
18 | Cl.Clc1cc(OC[C@@H]2CCN2)cnc1Cl [Example 15, 5,6-dichloro-3-(2-(S)-azetidinylmethoxy)pyridine hydrochloride] |  | 152 | 300 |  |  |  |  | 
19 | CN1CCC[C@@H]1COc1cnc(Cl)c(Br)c1.Cl [Example 8, 5-bromo-6-chloro-3-(1-methyl-2-(R)-pyrrolidinylmethoxy)pyridine hydrochloride] |  | 10.6 |  |  |  | 13 | 28 | 60
20 | CCc1cc(OC[C@@H]2CCN2)cnc1Cl.Cl [Example 45, 5-Ethyl-6-chloro-3-(2-(S)-azetidinylmethoxy)pyridine hydrochloride] |  | 137 | 400 |  |  | 0.04 |  | 
21 | Cl.Clc1cc(OC[C@H]2CCCN2)cnc1Cl [Example 9, 5,6-Dichloro-3-(2-(R)-pyrrolidinylmethoxy)pyridine hydrochloride] | 0.03 | 67 | 1600 |  |  |  |  | 
